In paper PMC11005233, “Targeting FTO induces colorectal cancer ferroptotic cell death by decreasing SLC7A11/GPX4 expression” (Journal of Experimental & Clinical Cancer Research : CR, 2024):
pKd: −log10 of the molar value.

Target: fat mass and obesity-associated protein (FTO) (Homo sapiens, UniProt Q9C0B1)
Test: SPR (Biacore T200); also thermal shift, CETSA, cell-free m6A demethylase assay
Type: binding

Chain of fat mass and obesity-associated protein (FTO) (Q9C0B1 whole entry): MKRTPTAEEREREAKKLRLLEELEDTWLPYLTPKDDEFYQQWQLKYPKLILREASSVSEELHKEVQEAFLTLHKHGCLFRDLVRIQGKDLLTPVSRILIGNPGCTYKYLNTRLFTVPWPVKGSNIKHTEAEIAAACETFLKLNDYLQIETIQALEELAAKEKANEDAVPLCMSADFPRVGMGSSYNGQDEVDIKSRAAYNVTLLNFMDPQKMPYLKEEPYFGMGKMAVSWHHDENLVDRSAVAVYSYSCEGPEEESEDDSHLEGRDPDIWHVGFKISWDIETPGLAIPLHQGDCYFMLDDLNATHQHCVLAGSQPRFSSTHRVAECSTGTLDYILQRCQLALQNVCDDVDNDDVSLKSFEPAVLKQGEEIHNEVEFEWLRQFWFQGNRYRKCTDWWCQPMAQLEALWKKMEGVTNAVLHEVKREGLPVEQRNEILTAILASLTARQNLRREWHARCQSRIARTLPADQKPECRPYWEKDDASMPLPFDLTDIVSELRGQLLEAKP

For `C/C(=C\C(=O)OCCCCCCCCC(=O)O)C[C@@H]1OC[C@H](C[C@@H]2O[C@H]2[C@@H](C)[C@H](C)O)[C@@H](O)[C@H]1O` [Mupirocin], the pKd was 5.44.
